Measurements as given in PubChem BioAssay AID686916 (Sanford-Burnham Center for Chemical Genomics, 2013).
Where “and” joins values, the source holds several entries; their conditions need not be identical. Equal entries are not always repeated. Calls of active or inactive are those of the source.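 The calls were made as follows: active = concentration halving Nedd8 removal by the CSN enzyme IC50 of 60 µM or lower; inactive = the rest.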

Molecular target: COP9 signalosome complex subunit 5 (Homo sapiens) (UniProt Q92905)
Assay: inhibition of CSN cullin-RING ligase deneddylation – biochemical, fluorescence polarization, SCF-Nedd8-OG substrate, set 2, selectivity assay for RPN11 inhibitor project, SAR follow-up (AID 686916)
Conditions: Csn5 deneddylation of SCF-Nedd8-OG

Chain of COP9 signalosome complex subunit 5 (Homo sapiens) (Q92905 whole entry, looked up, one chain of several): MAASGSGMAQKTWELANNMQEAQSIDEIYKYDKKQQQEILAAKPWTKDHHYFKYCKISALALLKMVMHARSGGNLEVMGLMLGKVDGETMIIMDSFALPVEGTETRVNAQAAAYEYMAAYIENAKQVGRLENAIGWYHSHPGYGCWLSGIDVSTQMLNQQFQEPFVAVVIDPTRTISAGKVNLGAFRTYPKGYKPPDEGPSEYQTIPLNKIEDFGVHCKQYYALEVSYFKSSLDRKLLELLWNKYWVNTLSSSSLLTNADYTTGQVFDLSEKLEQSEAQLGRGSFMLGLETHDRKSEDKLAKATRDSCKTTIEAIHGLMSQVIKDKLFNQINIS

| Compound | IC50 |
| --- | --- |
| O=C(Sc1cccc2cccnc12)c1ccccc1I | 19.4 µM |
| Cc1ccccc1C(=O)Sc1cccc2cccnc12 | 18.2 µM |
| CC[C@@H](C)[C@H](NC(=O)c1cnc2c(SSc3cccc4cc(C(=O)N[C@H](C(=O)OC)[C@@H](C)CC)cnc34)cccc2c1)C(=O)OC | 4.73 µM |
| O=C(Sc1cccc2cccnc12)c1cccc(C(F)(F)F)c1 | > 95 µM (inactive) |
| COC(=O)[C@H](C)NC(=O)c1ccnc2c(SSc3cccc4c(C(=O)N[C@@H](C)C(=O)OC)ccnc34)cccc12 | 22.2 µM |
| CC(C)C[C@H](NC(=O)c1cnc2c(SSc3cccc4cc(C(=O)N[C@@H](CC(C)C)C(=O)O)cnc34)cccc2c1)C(=O)O | 11.8 µM |
| O=C(Sc1cccc2cccnc12)c1ccccc1[N+](=O)[O-] | 9.08 µM |
| COC(=O)[C@@H](NC(=O)c1cnc2c(SSc3cccc4cc(C(=O)N[C@H](C(=O)OC)C(C)C)cnc34)cccc2c1)C(C)C | 11.8 µM |
| COC(=O)[C@H](C)NC(=O)c1cnc2c(SSc3cccc4cc(C(=O)N[C@@H](C)C(=O)OC)cnc34)cccc2c1 | 20.3 µM |
| Cc1ccc(C(=O)Sc2cccc3cccnc23)cc1 | > 95 µM (inactive) |
| COC(=O)c1cnc2c(SSc3cccc4cc(C(=O)OC)cnc34)cccc2c1 | 20 µM |
| COc1ccc(C(=O)Sc2cccc3cccnc23)cc1OC | 14.3 µM |
| COC(=O)[C@H](CC(C)C)NC(=O)c1cnc2c(SSc3cccc4cc(C(=O)N[C@@H](CC(C)C)C(=O)OC)cnc34)cccc2c1 | 13.9 µM |
| Cc1cccc(C(=O)Sc2cccc3cccnc23)c1 | 12.3 µM |
| COC(=O)C[C@H](NC(=O)c1cnc2c(SSc3cccc4cc(C(=O)N[C@@H](CC(=O)OC)C(=O)OC)cnc34)cccc2c1)C(=O)OC | 13 µM |
| O=C(Sc1cccc2cccnc12)c1ccccc1F | > 95 µM (inactive) |
| N#Cc1ccc(C(=O)Sc2cccc3cccnc23)cc1 | > 95 µM (inactive) |
| O=C(Sc1cccc2cccnc12)c1cccc2ccccc12 | 14.3 µM |
| O=C(Sc1cccc2cccnc12)c1ccccc1OC(F)(F)F | 17.8 µM |
| CC(C)Cc1ccc(C(=O)Sc2cccc3cccnc23)cc1 | 15.6 µM |
| C[C@@H](C(=O)O)N(C)C(=O)c1cnc2c(SSc3cccc4cc(C(=O)N(C)[C@@H](C)C(=O)O)cnc34)cccc2c1 | 13 µM |
| O=C(Sc1cccc2cccnc12)c1cccc(Cl)c1 | 2.63 µM |
| O=C(Sc1cccc2cccnc12)c1ccc(F)cc1F | 24.6 µM |
| O=C(Sc1cccc2cccnc12)c1ccc(C(F)(F)F)cc1 | 5.25 µM |

| Compound | IC50 |
| --- | --- |
| CC[C@@H](C)[C@H](NC(=O)c1cnc2c(SSc3cccc4cc(C(=O)N[C@H](C(=O)O)[C@H](C)CC)cnc34)cccc2c1)C(=O)O | 8.57 µM |
| O=C(Sc1cccc2cccnc12)c1ccccc1Cl | 19.9 µM |
| COc1ccc(C(=O)Sc2cccc3cccnc23)cc1 | 13.7 µM |
| O=C(Sc1cccc2cccnc12)C1CCCCC1 | 4.07 µM |
| O=C(Sc1cccc2cccnc12)c1ccc(F)c(F)c1 | 4.92 µM |
| N#Cc1cccc(C(=O)Sc2cccc3cccnc23)c1 | 33.3 µM |
| CC(C)[C@H](NC(=O)c1cnc2c(SSc3cccc4cc(C(=O)N[C@H](C(=O)O)C(C)C)cnc34)cccc2c1)C(=O)O | 8.35 µM |
| CC(C)(C)OC(=O)CCNC(=O)c1cnc2c(SSc3cccc4cc(C(=O)NCCC(=O)OC(C)(C)C)cnc34)cccc2c1 | 26.4 µM |
| COC(=O)[C@H](CO)NC(=O)c1cnc2c(SSc3cccc4cc(C(=O)N[C@@H](CO)C(=O)OC)cnc34)cccc2c1 | 36.2 µM |
| O=C(O)c1cnc2c(SSc3cccc4cc(C(=O)O)cnc34)cccc2c1 | 4.28 µM |
| O=C(Sc1cccc2cccnc12)c1ccc(F)cc1 | 3.12 µM |
| O=C(Sc1cccc2cccnc12)c1ccc2c(c1)OCO2 | 40.1 µM |
| O=C(O)[C@@H]1CCCN1C(=O)c1cnc2c(SSc3cccc4cc(C(=O)N5CCC[C@H]5C(=O)O)cnc34)cccc2c1 | 6.36 µM |
| O=C(Sc1cccc2cccnc12)c1ccccc1Br | 7.91 µM |
| COc1ccccc1C(=O)Sc1cccc2cccnc12 | 20.7 µM and 5.61 µM |
| CCCc1ccc(C(=O)Sc2cccc3cccnc23)cc1 | 10.4 µM |
| O=C(Sc1cccc2cccnc12)c1ccc([N+](=O)[O-])cc1 | 13 µM |
| COC(=O)[C@@H]1CCCN1C(=O)c1cnc2c(SSc3cccc4cc(C(=O)N5CCC[C@H]5C(=O)OC)cnc34)cccc2c1 | 17.6 µM |
| O=C(Sc1cccc2cccnc12)c1ccccc1 | 11.2 µM |
| O=C(Sc1cccc2cccnc12)c1c(Cl)cccc1Cl | 17.4 µM |
| COC(=O)[C@H](C)N(C)C(=O)c1cnc2c(SSc3cccc4cc(C(=O)N(C)[C@@H](C)C(=O)OC)cnc34)cccc2c1 | 12.8 µM |
| CCOc1ccccc1C(=O)Sc1cccc2cccnc12 | 11.7 µM and 31.8 µM |
| COc1cccc(C(=O)Sc2cccc3cccnc23)c1 | 5.57 µM |
| COc1ccc(C(=O)Sc2cccc3cccnc23)cc1F | 5 µM |
